Results: ChEMBL document CHEMBL1201862, “PubChem BioAssay data set” (2004)
Structures can show the parent of a compound that is named as a salt. The source made the active and inactive calls.

What was measured:
[1] = target: ALK tyrosine kinase receptor (Homo sapiens, UniProt Q9UM73); format: functional;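 also: ALK tested as one member of a kinase panel screen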
Focal adhesion kinase 1 = Focal adhesion kinase 1 (Homo sapiens, UniProt Q05397); format: functional;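 also: measured as one member of a kinome panel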
[2] = target: Mitogen-activated protein kinase 14 (Homo sapiens, UniProt Q16539); format: functional;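 also: part of a kinome-wide panel, MAPK14 entry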
[3] = target: Receptor-type tyrosine-protein kinase FLT3 (Homo sapiens, UniProt P36888); format: functional;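 also: FLT3 was tested as one member of a kinome-wide kinase panel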
[4] = target: Tyrosine-protein kinase ITK/TSK (Homo sapiens, UniProt Q08881); format: functional;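 also: affinity for ITK measured as one member of a broad kinase panel profiling binding across the kinome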
Tyrosine-protein kinase ITK/TSK, sequence (Q08881 whole entry): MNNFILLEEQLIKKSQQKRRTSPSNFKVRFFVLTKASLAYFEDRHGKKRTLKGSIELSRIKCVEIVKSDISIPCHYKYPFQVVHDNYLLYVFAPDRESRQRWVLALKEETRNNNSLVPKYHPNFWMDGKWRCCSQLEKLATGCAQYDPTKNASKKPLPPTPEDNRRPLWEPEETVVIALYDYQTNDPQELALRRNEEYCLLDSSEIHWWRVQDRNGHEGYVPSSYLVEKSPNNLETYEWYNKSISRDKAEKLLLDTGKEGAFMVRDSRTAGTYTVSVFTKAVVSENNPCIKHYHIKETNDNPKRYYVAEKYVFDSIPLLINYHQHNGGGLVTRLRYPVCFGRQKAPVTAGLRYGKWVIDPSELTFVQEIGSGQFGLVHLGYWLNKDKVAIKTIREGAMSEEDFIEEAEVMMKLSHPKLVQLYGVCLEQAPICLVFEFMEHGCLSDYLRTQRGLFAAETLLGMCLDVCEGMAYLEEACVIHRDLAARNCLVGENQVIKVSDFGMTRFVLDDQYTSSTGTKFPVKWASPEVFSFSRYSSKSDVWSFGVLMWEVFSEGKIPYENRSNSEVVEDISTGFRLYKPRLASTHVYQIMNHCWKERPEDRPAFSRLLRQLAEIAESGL

[5] = target: 3-phosphoinositide-dependent protein kinase 1 (Homo sapiens, UniProt O15530); format: functional;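 also: value comes from the Navigating the Kinome panel, PDPK1 member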
[6] = target: Tyrosine-protein kinase Fer (Homo sapiens, UniProt P16591); format: functional;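 also: FER tested as one member of a kinome panel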
[7] = target: Mitogen-activated protein kinase 8 (Homo sapiens, UniProt P45983); format: functional;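 also: value comes from one member of a kinome-wide kinase profiling panel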
[8] = target: High affinity nerve growth factor receptor (Homo sapiens, UniProt P04629); format: functional;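 also: NTRK1 tested as one member of a kinome-wide profiling panel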
High affinity nerve growth factor receptor, sequence (P04629 whole entry): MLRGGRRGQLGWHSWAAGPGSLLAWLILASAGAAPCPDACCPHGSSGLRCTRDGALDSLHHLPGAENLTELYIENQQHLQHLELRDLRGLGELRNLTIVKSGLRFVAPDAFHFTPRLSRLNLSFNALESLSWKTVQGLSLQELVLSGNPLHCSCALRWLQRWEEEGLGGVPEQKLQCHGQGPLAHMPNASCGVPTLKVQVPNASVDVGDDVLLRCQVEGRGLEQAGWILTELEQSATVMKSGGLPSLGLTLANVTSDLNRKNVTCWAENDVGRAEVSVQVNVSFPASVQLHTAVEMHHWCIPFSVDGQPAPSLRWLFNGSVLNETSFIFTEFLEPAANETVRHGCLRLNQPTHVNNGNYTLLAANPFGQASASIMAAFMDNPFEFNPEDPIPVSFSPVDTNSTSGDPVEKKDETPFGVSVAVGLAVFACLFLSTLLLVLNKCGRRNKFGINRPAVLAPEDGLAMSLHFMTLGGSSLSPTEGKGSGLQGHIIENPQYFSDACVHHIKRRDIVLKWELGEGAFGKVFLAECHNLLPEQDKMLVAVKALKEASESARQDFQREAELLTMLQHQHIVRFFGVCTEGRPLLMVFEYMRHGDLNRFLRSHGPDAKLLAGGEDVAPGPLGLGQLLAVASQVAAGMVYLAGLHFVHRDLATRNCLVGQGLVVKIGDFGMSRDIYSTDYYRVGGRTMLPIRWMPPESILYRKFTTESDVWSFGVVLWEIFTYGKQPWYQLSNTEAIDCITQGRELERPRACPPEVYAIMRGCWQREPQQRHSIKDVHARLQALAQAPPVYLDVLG

[9] = target: Casein kinase II subunit alpha (Homo sapiens, UniProt P68400); format: functional
Casein kinase II subunit alpha, sequence (P68400 whole entry): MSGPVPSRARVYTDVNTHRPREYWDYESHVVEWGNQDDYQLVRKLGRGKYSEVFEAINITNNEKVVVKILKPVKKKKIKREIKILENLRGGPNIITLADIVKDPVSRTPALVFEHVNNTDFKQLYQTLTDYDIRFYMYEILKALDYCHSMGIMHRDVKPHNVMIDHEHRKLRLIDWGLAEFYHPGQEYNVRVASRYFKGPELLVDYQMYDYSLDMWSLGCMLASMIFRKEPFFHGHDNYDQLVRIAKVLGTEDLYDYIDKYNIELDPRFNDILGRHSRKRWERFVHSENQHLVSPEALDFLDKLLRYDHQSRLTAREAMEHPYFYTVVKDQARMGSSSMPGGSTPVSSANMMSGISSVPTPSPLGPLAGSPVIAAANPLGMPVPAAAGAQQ

[10] = target: MAP kinase-interacting serine/threonine-protein kinase 2 (Homo sapiens, UniProt Q9HBH9); format: functional
[11] = target: cGMP-dependent protein kinase 1 (Homo sapiens, UniProt Q13976); format: functional;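 also: value from a kinome panel screen with PRKG1 as the panel member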
[12] = target: Receptor tyrosine-protein kinase erbB-2 (Homo sapiens, UniProt P04626); experiment: Navigating the Kinome. Panel member name: ERBB2; format: functional
[13] = target: Glycogen synthase kinase-3 alpha (Homo sapiens, UniProt P49840); format: functional;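 also: GSK3A result taken from a broad kinome-wide kinase panel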
[14] = target: Tyrosine-protein kinase FRK (Homo sapiens, UniProt P42685); format: functional;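 also: FRK tested as one member of a kinome panel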
Tyrosine-protein kinase FRK, sequence (P42685 whole entry): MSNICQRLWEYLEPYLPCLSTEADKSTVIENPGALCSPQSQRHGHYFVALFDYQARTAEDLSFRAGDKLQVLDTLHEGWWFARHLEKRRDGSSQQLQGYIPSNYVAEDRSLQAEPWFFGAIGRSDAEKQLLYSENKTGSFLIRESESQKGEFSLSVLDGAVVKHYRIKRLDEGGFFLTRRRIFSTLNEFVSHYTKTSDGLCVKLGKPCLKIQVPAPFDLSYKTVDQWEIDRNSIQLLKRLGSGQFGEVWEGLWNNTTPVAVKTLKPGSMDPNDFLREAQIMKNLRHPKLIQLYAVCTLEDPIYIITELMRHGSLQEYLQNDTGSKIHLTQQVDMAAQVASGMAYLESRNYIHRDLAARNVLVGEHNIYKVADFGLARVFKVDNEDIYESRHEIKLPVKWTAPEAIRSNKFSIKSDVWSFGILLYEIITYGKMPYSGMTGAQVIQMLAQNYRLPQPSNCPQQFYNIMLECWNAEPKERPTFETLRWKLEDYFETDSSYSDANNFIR

[15] = target: Serine/threonine-protein kinase PLK1 (Homo sapiens, UniProt P53350); format: functional;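 also: PLK1 measured as one member of a kinome-wide profiling panel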
[16] = target: Protein kinase C zeta type (Homo sapiens, UniProt Q05513); format: functional;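 also: measured as one member of a broad kinase profiling panel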
[17] = target: Fibroblast growth factor receptor 3 (Homo sapiens, UniProt P22607); format: functional
Fibroblast growth factor receptor 3, sequence (P22607 whole entry): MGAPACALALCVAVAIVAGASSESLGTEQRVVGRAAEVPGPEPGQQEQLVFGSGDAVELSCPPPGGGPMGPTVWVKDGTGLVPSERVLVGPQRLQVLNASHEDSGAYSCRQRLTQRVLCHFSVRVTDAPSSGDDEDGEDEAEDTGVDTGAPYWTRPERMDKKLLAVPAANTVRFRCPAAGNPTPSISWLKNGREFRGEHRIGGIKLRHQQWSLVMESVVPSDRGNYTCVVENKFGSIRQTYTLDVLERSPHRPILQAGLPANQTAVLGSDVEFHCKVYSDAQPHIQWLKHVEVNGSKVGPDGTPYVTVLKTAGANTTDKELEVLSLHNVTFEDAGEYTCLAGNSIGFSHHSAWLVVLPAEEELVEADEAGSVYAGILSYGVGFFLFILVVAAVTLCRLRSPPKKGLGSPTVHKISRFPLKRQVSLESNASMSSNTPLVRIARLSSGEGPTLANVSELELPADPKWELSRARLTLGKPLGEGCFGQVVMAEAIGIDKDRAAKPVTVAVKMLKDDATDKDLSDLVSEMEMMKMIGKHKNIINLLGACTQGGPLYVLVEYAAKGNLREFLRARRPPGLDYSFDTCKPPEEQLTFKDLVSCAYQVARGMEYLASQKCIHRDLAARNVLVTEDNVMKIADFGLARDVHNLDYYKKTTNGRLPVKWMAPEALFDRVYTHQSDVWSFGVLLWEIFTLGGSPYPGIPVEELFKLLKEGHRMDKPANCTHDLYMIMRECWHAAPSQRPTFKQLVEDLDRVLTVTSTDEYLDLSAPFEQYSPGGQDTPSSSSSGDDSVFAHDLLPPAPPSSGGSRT

[18] = target: Vascular endothelial growth factor receptor 3 (Homo sapiens, UniProt P35916); format: functional;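 also: value from a kinome-wide profiling panel, with FLT4 as the panel member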
[19] = target: DNA repair protein RAD52 homolog (Homo sapiens, UniProt P43351); format: functional, biochemical
[20] = target: T1, Mannose-6-phosphate isomerase (Homo sapiens, UniProt P34949); experiment: human PMI inhibitors, high substrate, primary screen, biochemical, fluorescence intensity, high mannose 6-phosphate (AID 1220)
T1 sequence (P34949 whole entry): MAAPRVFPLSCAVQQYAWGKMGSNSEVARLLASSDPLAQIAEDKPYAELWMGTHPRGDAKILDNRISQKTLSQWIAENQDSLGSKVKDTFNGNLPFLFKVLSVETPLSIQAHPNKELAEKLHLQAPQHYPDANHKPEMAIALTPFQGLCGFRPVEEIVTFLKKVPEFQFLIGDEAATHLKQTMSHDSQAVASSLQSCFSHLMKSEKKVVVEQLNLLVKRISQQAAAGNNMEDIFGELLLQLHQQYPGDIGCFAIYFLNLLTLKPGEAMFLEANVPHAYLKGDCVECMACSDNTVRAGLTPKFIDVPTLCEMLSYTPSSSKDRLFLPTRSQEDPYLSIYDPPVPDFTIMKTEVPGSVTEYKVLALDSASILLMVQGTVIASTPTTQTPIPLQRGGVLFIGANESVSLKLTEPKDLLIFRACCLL

SUMO-activating enzyme = SUMO-activating enzyme (Homo sapiens, UniProt Q9UBT2); experiment: SUMOylation inhibitor hit validation, confirmation, SUMOylation inhibitor project, biochemical, AlphaScreen (AID 2018); format: functional
[21] = target: Polyadenylate-binding protein 1 (Homo sapiens, UniProt P11940); experiment: PABP1 MLLE–PAM2 interaction inhibitors, dose response, miRNA deadenylation inhibitor project, biochemical, fluorescence polarization, Cy5-PAM2 peptide, secondary (AID 602260); format: functional; conditions: read-out: IC50_Mean
14-3-3 protein gamma = 14-3-3 protein gamma (Homo sapiens, UniProt P61981); experiment: modulators of 14-3-3 gamma client binding – dose response (AID 711); format: functional
14-3-3 protein gamma, sequence (P61981 whole entry): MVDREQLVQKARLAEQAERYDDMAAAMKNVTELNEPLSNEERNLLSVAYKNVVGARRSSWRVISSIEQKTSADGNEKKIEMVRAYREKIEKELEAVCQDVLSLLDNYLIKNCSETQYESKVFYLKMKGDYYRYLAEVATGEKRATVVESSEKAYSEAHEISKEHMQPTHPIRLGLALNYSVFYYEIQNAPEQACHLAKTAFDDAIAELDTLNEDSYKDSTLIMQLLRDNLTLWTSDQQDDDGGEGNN

[22] = Luminescence Cell-Based Dose Confirmation to Identify Activators of 5'UTR Stem-Loop Driven Alpha-Synuclein mRNA Translation in H4 Neuroglioblastoma Cells. [Related pubchem assays: 1829 (Project Summary), 1814 (Primary HTS)]; format: functional
[23] = Counterscreen for AddAB inhibitors: absorbance-based bacterial cell-based high throughput dose response assay for inhibitors of bacterial viability. [Related pubchem assays (depositor defined):AID435030, AID449728, AID449731, AID488942, AID488955, AID488956]; format: functional

ALK tyrosine kinase receptor, sequence (Q9UM73 whole entry): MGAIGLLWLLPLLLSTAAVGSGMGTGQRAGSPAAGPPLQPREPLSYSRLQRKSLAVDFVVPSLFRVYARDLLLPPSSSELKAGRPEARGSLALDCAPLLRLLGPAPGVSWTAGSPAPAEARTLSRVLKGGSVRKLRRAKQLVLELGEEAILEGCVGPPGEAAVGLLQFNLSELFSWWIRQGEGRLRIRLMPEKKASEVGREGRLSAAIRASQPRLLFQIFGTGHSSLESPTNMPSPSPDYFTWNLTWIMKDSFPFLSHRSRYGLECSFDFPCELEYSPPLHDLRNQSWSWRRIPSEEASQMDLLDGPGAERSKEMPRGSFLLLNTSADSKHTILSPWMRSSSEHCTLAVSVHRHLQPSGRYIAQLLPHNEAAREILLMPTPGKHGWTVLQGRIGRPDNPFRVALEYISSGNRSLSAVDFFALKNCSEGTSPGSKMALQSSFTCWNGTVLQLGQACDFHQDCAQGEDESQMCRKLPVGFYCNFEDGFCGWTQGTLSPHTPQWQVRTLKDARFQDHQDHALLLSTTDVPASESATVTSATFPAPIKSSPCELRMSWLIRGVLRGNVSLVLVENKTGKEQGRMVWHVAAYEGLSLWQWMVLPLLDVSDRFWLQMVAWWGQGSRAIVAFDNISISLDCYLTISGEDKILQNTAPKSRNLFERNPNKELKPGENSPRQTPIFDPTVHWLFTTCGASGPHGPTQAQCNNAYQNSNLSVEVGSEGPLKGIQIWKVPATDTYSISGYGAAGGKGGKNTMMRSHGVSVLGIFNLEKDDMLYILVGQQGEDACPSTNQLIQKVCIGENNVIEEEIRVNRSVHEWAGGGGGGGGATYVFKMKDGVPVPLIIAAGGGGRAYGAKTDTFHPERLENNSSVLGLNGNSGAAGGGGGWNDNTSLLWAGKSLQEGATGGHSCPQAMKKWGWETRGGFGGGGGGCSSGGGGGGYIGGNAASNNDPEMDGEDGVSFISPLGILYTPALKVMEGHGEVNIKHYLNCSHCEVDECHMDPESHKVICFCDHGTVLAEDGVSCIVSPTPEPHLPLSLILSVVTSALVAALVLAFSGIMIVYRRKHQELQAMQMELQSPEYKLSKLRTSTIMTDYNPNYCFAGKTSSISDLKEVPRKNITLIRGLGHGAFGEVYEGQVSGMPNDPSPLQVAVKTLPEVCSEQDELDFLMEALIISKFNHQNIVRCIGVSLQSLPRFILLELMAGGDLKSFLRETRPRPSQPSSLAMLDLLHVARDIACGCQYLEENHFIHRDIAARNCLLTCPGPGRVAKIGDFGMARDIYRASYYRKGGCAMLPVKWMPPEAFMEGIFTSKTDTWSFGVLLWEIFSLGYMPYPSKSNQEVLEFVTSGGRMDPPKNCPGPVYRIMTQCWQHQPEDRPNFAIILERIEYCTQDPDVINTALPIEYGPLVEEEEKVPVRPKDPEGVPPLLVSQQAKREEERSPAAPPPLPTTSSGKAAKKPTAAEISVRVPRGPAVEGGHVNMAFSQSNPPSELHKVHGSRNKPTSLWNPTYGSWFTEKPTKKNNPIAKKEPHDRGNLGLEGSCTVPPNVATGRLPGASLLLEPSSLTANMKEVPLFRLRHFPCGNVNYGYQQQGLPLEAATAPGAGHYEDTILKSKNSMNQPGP

With `CN1CCN(c2nc(C3=C(c4c[nH]c5ccccc45)C(=O)NC3=O)c3ccccc3n2)CC1` [SOTRASTAURIN] the Ki [1] was > 1.58 µM (inactive), the Ki (Focal adhesion kinase 1) was > 6.31 µM (inactive) and the Ki [2] was > 3.98 µM (inactive). The Ki [3] was > 1.58 µM (inactive), the Ki [4] was > 1.58 µM (inactive) and the Ki [5] was 1.58 µM (active). For the same compound, the Ki [6] was 316 nM (active), the Ki [7] was > 3.98 µM (inactive) and the Ki [8] was > 2.51 µM (inactive). For the same compound, the Ki [9] was > 6.31 µM (inactive), the Ki [10] was > 10 µM (inactive) and the Ki [11] was 794 nM (active). The Ki [12] was 794 nM (active), the Ki [13] was 158 nM (active) and the Ki [14] was > 2.51 µM (inactive). The Ki [15] was 63.1 nM (active), the Ki [16] was 63.1 nM (active) and the Ki [17] was > 2 µM (inactive). The Ki [18] was 316 nM (active).

For `CCCCCCCCCCOC(=O)C[n+]1c(COc2ccc(C)cc2)n(C)c2ccccc21`, the AC50 [19] was 9.47 µM (active).

In the case of `CCC(C)n1c(NC(=O)c2ccccc2)c(C#N)c2nc3ccccc3nc21` (stereo unspecified), the IC50 [20] is reported as > 50 µM (not active) and the IC50 (SUMO-activating enzyme) is reported as 3.51 µM (active).

For `CC[C@@H](CO)NC(=O)[C@@H]1C=C2c3cccc4c3c(cn4C)C[C@H]2N(C)C1` [METHYSERGIDE MALEATE], the IC50 [21] was > 66 µM (inactive) and the IC50 (14-3-3 protein gamma) was > 50 µM (not active).

With `CCN1/C(=C\c2ccc3ccccc3[n+]2CC)Sc2cc(C)ccc21` the EC50 [22] was > 12 µM (not active) and the IC50 [23] was 37.5 µM (inactive).
